Patent publication US20110268800A1, “Unsaturated fatty acids as thrombin inhibitors” (LTS Lohmann Therapie-Systeme AG, priority 2005, published 2011)

Target: thrombin (Homo sapiens, UniProt P00734)
Assay: thrombin inhibition test, amidolytic assay with Chromozym TH
Format: biochemical
Conditions: for Inhibition (%): thrombin, substrate Chromozym TH, pH 8.0, room temperature, 15 min preincubation; for thrombin-inhibiting action of fatty acids identified in the plant drugs (in words): free fatty acids separated from hexane/isopropanol (3:2) lipid extracts by preparative thin layer chromatography
Experimental: As the testing system, an amidolytic assay with Chromozym TH (tosylglycyl-prolyl-arginine-4-nitroanilide acetate) was used as a substrate for thrombin. The principle of the test system is based on the cleavage of the substrate by thrombin, and on the release of p-nitroaniline, which absorbs at a wavelength of 405 nm. The absorption increase over time was detected photometrically. The inhibition of thrombin was calculated by a comparison between the linear initial phase of the absorption increase of the test samples containing the extract, and the blank value.
For the thrombin inhibition test, the method according to Sturzebecher was employed, with the exception of the enzyme concentration (Sturzebecher, J., Vieweg, H. (1995). Structure-Activity Relationships of Inhibitors derived from 3-Amidinophenyl-alanine. J Enzyme Inhib, 9, 87-99). • Buffer: 608 mg Tris buffer and 900 mg NaCl were dissolved in 100 ml bidistilled water. The pH value of the buffer was subsequently set to 8.0, using HCl (2 mMol) (concentrations in the sample: 0.05 mol/1 Tris HCL, 0.154 mol/1 NaCl). The substance to be examined was dissolved in ethanol (5% total volume). This was followed by filling up with buffer. • Enzyme: 1 mg/ml (=50 NIH—U/ml) thrombin was dissolved in 0.9% NaCl solution (stock solution). To prepare the sample, this solution was diluted 1:100 with a solution of 0.9% NaCL and 1% bovine serum albumin. • Substrate: 6.6 mg Chromozym TH was dissolved in 10 ml bidistilled water (concentration=1 mmol/l). • Measurement sample: 200 μl buffer/substance • 25 μl substrate • 50 μl enzyme • Conditions: Room temperature • Implementation: Buffer and enzyme are added together by pipetting and incubated for 15 min. The reaction was started by adding the substrate. • For measuring the absorption, a plate reader, iEMS Reader MF from Labsystems, was used with 96-well microtitre plates. The measurements took place at a wavelength of 405 nm, every 10 seconds, 60 measurements. Prior to start of the measurements, the microtitre plate was shaken at 600 rpm. • Evaluation: The measurements were recorded by means of iEMS Accent Software, and evaluated with Microsoft Excel 97 Software. • To calculate inhibition, the slope in the linear initial phase of the absorption increase in the samples containing the substance to be examined was compared with the slope of the absorption increase in the blank sample. For evaluation, the first 5 measured values were left out of consideration since the bubbles forming on account of the mixing can lead to problems at the beginning of the reaction. The inhibition is calculated as follows:
Inhibition=100−(slopeInhibitor/slopeBlank value*100)

Compound	Inhibition (%) (test concentration not printed)	also measured
CCCCCC[C@@H](O)C/C=C/CCCCCCCC(=O)O (stereo in doubt) [Ricinoleic acid, 12-Hydroxy-9-cis-octadecenoic acid]	43.9%	–
C=CCCCCCCCC(=O)O [9-Decenoic acid]	−3.7%	–
CC/C=C\C/C=C\C/C=C\CCCCCCCCCC(=O)O [Eicosatrienoic acid, 11-cis, 14-cis, 17-cis-Eicosatrienoic acid]	76.0%	–
CCCCCCCC/C=C\CCCCCCCCCC(=O)O [Eicosenoic acid, 11-cis-Eicosenoic acid]	60.7%	thrombin-inhibiting action of fatty acids identified in the plant drugs (in words): identified as the thrombin-inhibiting substances
CCCCCCCC/C=C/CCCCCCCC(=O)O [Elaidinic acid, 9-trans-Octadecenoic acid]	7.4%	–
CCCCCCCC/C=C\CCCCCCCCCCCC(=O)O [Eruca acid, 13-cis-Docosaenoic acid]	7.8%	–
CCCCC/C=C\C/C=C\CCCCCCCC(=O)O [Linoleic acid, 9-cis,12-cis-Octadecadienoic acid]	71.7%	thrombin-inhibiting action of fatty acids identified in the plant drugs (in words): responsible for the thrombin-inhibiting action
CCCCCCCC(=O)O [Octanoic acid]	0.7%	–
CCCCCCCC/C=C\CCCCCCCC(=O)O [Oleic acid, 9-cis-Octadecenoic acid]	65.8%	thrombin-inhibiting action of fatty acids identified in the plant drugs (in words): identified as the thrombin-inhibiting substances; Inhibition (%) (test concentration not printed, listed as oleic acid): 66%
CCCCCCCCCCCCCCCC(=O)O [Palmitic acid, Hexadecanoic acid]	1.4%	thrombin-inhibiting action of fatty acids identified in the plant drugs (in words): without effect
CCCCCC/C=C\CCCCCCCCCC(=O)O [Vaccenic acid, 11-cis-Octadecenoic acid]	79.9%	Inhibition (%) (test concentration not given, listed as cis-vaccenic acid): 80%

Continued, in another order:

Inhibition (%) (test concentration not printed)	Compound	also measured
75.2%	CCCCC/C=C\C/C=C\C/C=C\C/C=C\CCCC(=O)O [Arachidonic acid, 5-cis, 8-cis, 11-cis, 14-cis-Eicosatetraenoic acid]	–
−2.5%	CC/C=C\C/C=C\C/C=C\C/C=C\C/C=C\C/C=C\CCC(=O)O [Docosahexaenoic acid, 4-cis, 7-cis, 10-cis, 13-cis, 16-cis, 19-cis-Docosahexaenoic acid]	–
−1.0%	CC/C=C\C/C=C\C/C=C\C/C=C\C/C=C\CCCC(=O)O [Eicosapentaenoic acid, 5-cis, 8-cis, 11-cis, 14-cis, 17-cis-Eicosapentaenoic acid]	–
75.5%	CC/C=C\C/C=C\C/C=C\CCCCCCCC(=O)O [Linolenic acid, 9-cis, 12-cis, 15-cis-Octadecatrienoic acid]	–
2.4%	CC/C=C\C/C=C\C/C=C\C/C=C\CCCCC(=O)O [Stearidonic acid, 6-cis, 9-cis, 12-cis, 15-cis-Octadecatetraenoic acid]	–
